{"source": "patent US20070265274A1", "about": "“4-(4-METHYLPIPERAZIN-1-YLMETHYL)-N-[4-METHYL-3-(4-PYRIDIN-3-YL)PYRIMIDIN-2-YLAMINO)PHENYL]-BENZAMIDE FOR TREATING MUTATED-RET KINASE ASSOCIATED DISEASES” (priority 2002, published 2007)", "key": {"[1]": {"tested_on": "NIH3T3 cells expressing constitutively active RET MEN2A (RETC634 mutation)", "settings": "for % of cell decrease: SALT I 500 nM, 9 days", "protocol": "The RETC634 mutation is the most common germline mutation of the RET kinase occurring in 85% of multiple endocrine neoplasias type 2A. The effect of SALT I on growth of NIH3T3 cells stably expressing a constitutively active form of the RET kinase (RETC634 mutation) is investigated.\nNIH3T3 cells expressing constitutively active RET MEN2A are allowed to plate overnight in 6-well plates. They are then grown in the presence of 1 or 5% serum with SALT I 500 nM or with a vehicle solvent (control) for 9 days, with media changes every 3 days. Cells are counted after harvesting with EDTA/trypsin solution on day 9 after initiation of treatments."}, "RET/PTC3": {"tested_on": "RET/PTC3", "settings": "100 nM SALT I; 25 min at room temperature; γP32-ATP", "method": "Cell Line: PCCL3, a rat thyroid cell line, is maintained in H4 complete medium consisting of Coon's medium/F12 high zinc supplemented with 5% FBS, 0.3 mg/ml L-glutamine, 1 mU/ml TSH, 10 μg/ml insulin, 5 μg/ml apo-transferrin, 10 nM hydrocortisone, and penicillin/streptomycin. […] Stable transfections are performed first to establish clonal lines constitutively expressing the transactivator rtTA (composed of a fusion of the rtetR DNA binding domain and the VP16 activation domain). Individual rtTA-expressing clones are then explored for doxycyclin-inducible expression by transient transfection with a luciferase reporter construct under control of a tet-operator.\nConfluent T-75 flasks of RET/PTC3 (PCCL3) cells incubated with or without doxycycline for 24 hours are washed with ice cold PBS containing 0.2 mM sodium ortho-vanadate. […] After the second wash, the reactions are boiled in 35 μl Laemmli buffer for 10 min, the proteins are subjected to SDS-PAGE (7.5%) and their phosphorylation measured by PhosphoImager densitrometry (Molecular Dynamics, Sunnyvale, Calif.) after transfer to nitrocellulose membranes. Protein loading is then normalized to total RET kinase protein determined by Western blot analysis using either the goat polyclonal anti-RET kinase antibody (Santa Cruz) or a mouse monoclonal (University of Cincinnati)."}, "[2]": {"tested_on": "PLCγ phosphorylation by RET/PTC", "settings": "250 nM SALT I for 24 h; in comparison with samples without SALT I", "method": "To further explore the effect of SALT I on RET kinase activity, pretreatment with SALT I on PLCγ phosphorylation is examined.\nRet-PTC3 cells are seeded at 10^5 cells/well in 6-well Corning plates. After 3 days, cells are treated with or without doxycycline in the presence of 250 nM of SALT I for 24 h. Cells are rinsed twice with cold (phosphate buffered saline) PBS containing 0.1 mM sodium orthovanadate, and left for 20 minutes in ice-cold RIPA buffer shaking gently at 4° C. Cell lysates are collected by centrifugation at 10,600 g for 20 min at 4° C. Protein assays are performed on aliquots of supernatants by the Coomassie Blue assay (Pierce, Rockford, Ill.). Western blot analysis are performed by running 100 μg of protein on SDS PAGE (5%), transfer to nitrocellulose membrane and probing initially with anti-phospho PLCγ antibody (Cell Signaling) and then with anti-PLCγ (Cell Signaling) for normalization."}}, "note": "Like-named read-outs stand apart in the source and are kept apart here.", "data": [{"smiles": "CS(=O)(=O)O.Cc1ccc(NC(=O)c2ccc(CN3CCN(C)CC3)cc2)cc1Nc1nccc(-c2cccnc2)n1", "note": "[SALT I]", "values": [{"measurement": "% of cell decrease", "setting": "[1]; 1% serum", "value": 42, "unit": "%"}, {"measurement": "% of cell decrease", "setting": "[1]; 5% serum", "value": 15, "unit": "%"}, {"measurement": "growth of RET kinase-transformed NIH3T3 fibroblasts", "setting": "[1]; result in words", "value": "inhibits the growth"}, {"measurement": "inhibition of autophosphorylation of RET/PTC3", "setting": "RET/PTC3", "value": 40, "unit": "%"}, {"measurement": "inhibition of phosphorylation of PLCγ", "setting": "[2]", "value": 28, "unit": "%"}]}]}
